Test results from patent US20240316249A1, “INJECTION FORMULATION COMPOSITION FOR USE AS FILLER OR DRUG CARRIER THROUGH CLICK CHEMISTRY REACTION” (AJOU UNIVERSITY INDUSTRY-ACADEMIC COOPERATION FOUNDATION, priority 2018, published 2024).
“Also recorded” adds a separate entry of the source.

Assay: Amount of doxorubicin in tumor and organs after injection
Assay type: in vivo, mice
Experimental: To perform a pharmacokinetic experiment, mice were sacrificed on day 1, day 6, day 12, and day 18. Organs (tumors, the intestines, lungs, kidneys, liver, spleen, and heart) were immediately acquired and photographed (FIG. 12). To measure the amount of doxorubicin remaining in each organ, each organ was homogenized in a 0.3N HCl/70% ethanol solution at 25,000 rpm to 30,000 rpm using a T 10 basic ULTRA-TURRAX Homogenizer (IKA-Werke GmbH & Co., Staufen, Germany), followed by incubation at 37° C. for 15 minutes. Each uniformly mixed sample was mixed with the same volume of 40% ZnSO4 and a mobile phase, and incubated again at 37° C. for 15 minutes. When the incubation was completed, each sample was centrifuged at 2,000 rpm for 10 minutes, and the amount of doxorubicin contained in the supernatant was calculated by referring to the standard calibration curve. The amount of doxorubicin contained in each organ was measured by a UV-visible Spectrophotometer (V-770, JASCO Inc., Tokyo, Japan) (FIG. 13).

COc1cccc2c1C(=O)c1c(O)c3c(c(O)c1C2=O)C[C@@](O)(C(=O)CO)C[C@@H]3O[C@H]1C[C@H](N)[C@H](O)[C@H](C)O1 [Dox, doxorubicin]
occurrence of side effects due to the anticancer agent (Dox repeat injection (0.1 mg Dox)): induces various side effects
distribution of anticancer agent in tumor and organs (Dox repeat injection (0.1 mg Dox), compared to injection of doxorubicin alone (FIG. 13)): a large amount of anticancer agent is present in a tumor; also recorded: a large amount of anticancer agent remains in various organs
distribution of anticancer agent in tumor and organs (single injection 0.4 mg Dox, day 1, 6, 12, 18 (FIG. 13)): distributed more rapidly to various organs than a tumor
